Experiments:
[1] = target: T1, full length TRAF2 (Homo sapiens, UniProt Q12933); test: Fluorescence-based thermal shift assay of TRAF2; format: binding; conditions: 1 uM GST-TRAF2, melt curve 25-99° C.
T1 construct: dose-dependent stabilizing effect on full length TRAF2; purchased Rockland
T1 sequence (Q12933 1-501): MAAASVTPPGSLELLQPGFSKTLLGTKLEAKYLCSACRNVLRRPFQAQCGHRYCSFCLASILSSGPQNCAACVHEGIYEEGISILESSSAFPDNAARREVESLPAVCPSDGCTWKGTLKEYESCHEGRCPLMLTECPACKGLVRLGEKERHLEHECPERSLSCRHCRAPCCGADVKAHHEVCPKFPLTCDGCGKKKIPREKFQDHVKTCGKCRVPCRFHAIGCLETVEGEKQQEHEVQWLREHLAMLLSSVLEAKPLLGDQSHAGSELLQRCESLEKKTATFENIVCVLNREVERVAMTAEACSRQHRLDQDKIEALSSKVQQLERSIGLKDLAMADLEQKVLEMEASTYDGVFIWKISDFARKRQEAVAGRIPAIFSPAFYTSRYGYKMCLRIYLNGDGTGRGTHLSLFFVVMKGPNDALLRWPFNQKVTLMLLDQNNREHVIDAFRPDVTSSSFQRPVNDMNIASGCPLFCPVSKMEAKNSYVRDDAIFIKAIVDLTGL
Description: To test whether the compounds interact with TRAF2 in vitro, the thermal stability of purified TRAF2 in the presence of each compound was measured.
TRAF2—compound interactions were measured by fluorescence-based thermal shift using an Applied Biosystems ABI QuantStudio(TM) 6 Flex System. […] PCR plates were covered with optical seal, shaken, and centrifuged after protein and compounds were added. The instrument was programmed in the Melt Curve mode and the Standard speed run. The reporter was selected as Rox and None for the quencher. Each melt curve was programmed as follows: 25° C. for 2 min, followed by a 0.05° C. increase per second from 25° C. to 99° C., and finally 99° C. for 2min. Fluorescence intensity was collected continuously. In the Melt Curve Filter section, X4 (580 ±10)-M4 (623±14) was selected for the Excitation Filter-Emission Filter. The raw data was extracted in MS-Excel format.

[2] = tested on: TNF-induced nuclear translocation of NF-kB; test: Live-cell imaging of TNF-induced nuclear FP-RelA (NF-kB) translocation in single U2OS cells; format: cell-based, human; conditions: for Maximum fold change (Max) of nuclear FP-RelA / area under the fold change curve (AUC) of nuclear FP-RelA: 10 μM compound pretreatment before addition of TNF; for potency in restricting the signaling network upstream of NF-kB activation: TNF-stimulated U2OS FP-RelA cells; for nuclear mobilization of NF-kB: U2OS FP-RelA cells pre-treated with compound before exposure to TNF
Description: Rep., 22:585-599 (2018)).
To quantify the compounds' effect on NF-kB dynamics, each single-cell trajectory was decomposed into a series of descriptors (FIG. 3c) that transmit information within the cell about extracellular cytokine concentrations (Zhang et al., Cell. Syst., 5:638-645 e635 (2017)).
(§1) Live cells were imaged in an environmentally controlled chamber (37° C., 5% CO2) on a DeltaVision Elite microscope equipped with a pco.edge sCMOS camera and an Insight solid-state illumination module (GE). U2OS cells expressing FP-RelA/IKKγ were seeded at a density of 25000 cells/well 24 hours prior to live-cell imaging experiments on no. 1.5 glass bottom 96 well imaging plates (Matriplate). For imaging of FP-RelA nuclear translocation, live-cells were pre-treated with DMSO or indicated concentrations of compounds for 2 hours before exposure to either 100 ng/ml recombinant human TNF (Peprotech) or 100 ng/ml recombinant human IL1β (Peprotech). Wide-field epifluorescence and DIC images were collected using a 20× […] objective (0.45NA; Olympus). Cells were imaged for at least 30 minutes prior to addition of compounds. For detection of IKKγ puncta, live-cells were pre-treated with DMSO or indicated concentration of compounds for 2 hours before exposure to 100 ng/ml TNF. Wide-field epifluorescence and DIC images were collected using a 60× […] objective. […] Time-lapse images were collected over at least 4 fields per condition with a temporal resolution of 5 minutes per frame. Quantification of nuclear FP-RelA localization and the formation IKKγ puncta from flat-field and background corrected images was performed using customized scripts in Matlab and ImageJ.
(§2) For permutation tests, data from the TNF-only and the indicated experimental condition were combined and randomly distributed into ‘Permuted control’ and ‘Permuted experimental’ bins without replacement, preserving the size of the original control and experimental data sets. 10^6 permutations were performed and the difference between the means of permuted control and experimental data were calculated for each condition to generate a histogram. Two-tailed p-values were determined by computing the fraction of permuted data sets where Δmeanpermuted≥Δmeanunpermuted (FIGS. 12, 13, and 15).

[3] = tested on: IL1-induced dynamics of nuclear NF-kB; test: Live-cell imaging of IL1-induced nuclear FP-RelA (NF-kB) dynamics in U2OS cells; format: cell-based, human; conditions: 10 μM compound, 100 ng/mL IL1
Description: Live cells were imaged in an environmentally controlled chamber (37° C., 5% CO2) on a DeltaVision Elite microscope equipped with a pco.edge sCMOS camera and an Insight solid-state illumination module (GE). U2OS cells expressing FP-RelA/IKKγ were seeded at a density of 25000 cells/well 24 hours prior to live-cell imaging experiments on no. 1.5 glass bottom 96 well imaging plates (Matriplate). For imaging of FP-RelA nuclear translocation, live-cells were pre-treated with DMSO or indicated concentrations of compounds for 2 hours before exposure to either 100 ng/ml recombinant human TNF (Peprotech) or 100 ng/ml recombinant human IL1β (Peprotech). Wide-field epifluorescence and DIC images were collected using a 20× […] objective (0.45NA; Olympus). […] Quantification of nuclear FP-RelA localization and the formation IKKγ puncta from flat-field and background corrected images was performed using customized scripts in Matlab and ImageJ.
as §2, with “Two-tailed p-values were determined by computing the fraction of permuted data sets where Δmeanpermuted≥Δmeanunpermuted (FIGS. 12, 13, and 15).” left out

[4] = tested on: mature TNFR1 complex; test: Live-cell imaging of FP-IKK puncta in TNF-stimulated U2OS cells; format: cell-based, human; conditions: pretreated with compound before 100 ng/mL TNF
Description: as §1

[5] = tested on: IKKγ; test: Western blot of IKKγ expression in CRISPR-modified U2OS cells; format: cell-based, human; conditions: Actin-corrected band intensity
Description: U2OS cells (parental and expressing EGFP-RelA/IKKγ via CRISPR Knock-in) were cultured for 24 hrs in complete growth medium. After treatments, cells were lysed in SDS-based lysis buffer consisting of 120 mM Tris-Cl, pH 6.8, 4% SDS supplemented with protease and phosphatase inhibitors at 4° C. for 30 min. Protein extracts were clarified by centrifugation at 4° C. at 12,000×g for 10 min. Lysate protein levels were quantified by BCA assay (Pierce). Samples were separated by SDS-PAGE, 25 μg total protein per lane, then transferred to PVDF membranes. Blocking was done in 5% milk in TBS for 1 hour. Primary antibodies directed at RelA and β-actin (#4764 and #3700 respectively; Cell Signaling Technology), IKKγ and GAPDH (sc-8330 and sc25778 respectively; Santa Cruz) were diluted in 5% milk in TBS-T and incubated overnight at 4° C. Alexa 680/800-conjugated secondary antibodies (LICOR) were used in combination with an Odyssey (LI-COR) scanner for detection and quantification of band intensities.

[6] = target: T2, recombinant activated IKKβ (Homo sapiens, UniProt O14920); test: In vitro IKKβ kinase assay (ADP-Glo); format: biochemical; conditions: for IKKβ kinase activity: at 10-fold higher concentrations than used in cell-based experiments; for inhibitory activity over IKKβ kinase activity: at the concentrations used in this study
T2 construct: purchased Promega V4502
T2 sequence (O14920 1-756): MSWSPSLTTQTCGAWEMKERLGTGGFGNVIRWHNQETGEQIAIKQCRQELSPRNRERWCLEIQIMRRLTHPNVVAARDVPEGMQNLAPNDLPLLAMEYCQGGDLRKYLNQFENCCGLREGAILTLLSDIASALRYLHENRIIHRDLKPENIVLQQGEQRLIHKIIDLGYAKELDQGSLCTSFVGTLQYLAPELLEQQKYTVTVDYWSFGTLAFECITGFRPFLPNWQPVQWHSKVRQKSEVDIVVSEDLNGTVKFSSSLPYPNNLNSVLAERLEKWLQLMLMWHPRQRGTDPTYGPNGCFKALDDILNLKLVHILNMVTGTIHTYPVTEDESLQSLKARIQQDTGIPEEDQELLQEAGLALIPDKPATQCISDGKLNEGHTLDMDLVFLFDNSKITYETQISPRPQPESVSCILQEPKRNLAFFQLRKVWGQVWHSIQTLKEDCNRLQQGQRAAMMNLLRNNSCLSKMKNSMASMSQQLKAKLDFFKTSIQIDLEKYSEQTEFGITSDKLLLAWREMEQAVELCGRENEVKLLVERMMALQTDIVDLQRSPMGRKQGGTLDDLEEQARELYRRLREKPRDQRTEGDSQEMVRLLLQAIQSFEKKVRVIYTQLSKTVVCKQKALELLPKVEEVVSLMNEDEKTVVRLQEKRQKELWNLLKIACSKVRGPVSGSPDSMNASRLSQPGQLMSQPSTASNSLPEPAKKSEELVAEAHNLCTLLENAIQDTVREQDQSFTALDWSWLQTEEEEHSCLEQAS
Description: 1× kinase buffer A (40 mM Tris-HCl pH 7.4, 20 mM MgCl2, 0.1 mg/mL BSA, supplemented with 2 mM MnCl2, 2 mM DTT and 100 μM Sodium vanadate) was used to prepare all components of the reaction. All components were prepared in a 96-well plate and transferred to every other well of a 384-well opaque plate (Sigma-Aldrich, CLS3825-10EA) using a multichannel pipet. A 2.5× ATP/IKKtide substrate mix (62.5 μM ATP mixed with 0.5 μg/μL IKKtide) was prepared, and a 5× concentration of the indicated concentration of compounds in 0.5% DMSO, maintaining a final DMSO concentration of 0.1% in all reactions. […] The plate was briefly spun, and the reaction incubated at room temperature for 1 h. Next, 5 μL of ADP-Glo reagent were added to each well, spun and incubated for 40 minutes at room temperature. Finally, 10 μL of Kinase Detection Reagent were added to each well and incubated for 30 minutes at room temperature. Luminescence from each well was measured using an integration time of 500 ms in a M4 microplate reader (SpectraMax). Data from triplicate reactions were extracted and plotted.

[7] = tested on: U2OS cells; test: Compound toxicity comparison, LIVE/DEAD Cell Imaging Kit; format: cell-based, human; conditions: 10 μM, 2 h, 16 h or 24 h
Description: Cytotoxicity of the three compounds was compared with Bay 11-7082 (Cayman, 10010266), an inhibitor of the NF-κB pathway at working concentrations of 1-10 μM, using the LIVE/DEAD Cell Imaging Kit (488/570) (Invitrogen, R37601). For each condition, 15,000 U2OS cells were seeded in 200 μL of growth medium in each well of 96-well plate 48 h before microscopy. Next, medium was changed to medium containing either DMSO, 10 μM of indicated compound, or 10 μM of Bay 11-7082 for the indicated duration (2 h, 16 h, or 24 h). Before imaging, medium was changed to phenol red-free FluoBrite DMEM (Gibco, A18967-01) containing 300 ng/mL of Hoechst 33342, and 1:10000 of both Live Green and Dead Red dyes of the LIVE/DEAD Cell Imaging Kit. Cells were incubated for 60 minutes and imaged on the Delta Vision Elite imaging system at 20× magnification with a […] objective (0.45NA; Olympus). Analysis was done using Cell Profiler to segment cells and quantify median nuclear intensity values. Further analysis was performed using custom scripts in MATLAB. Data from biological triplicates were plotted as the mean ± SD.

CC(C)CN1CCN(C(=O)COC(=O)c2ccc(S(C)(=O)=O)c([N+](=O)[O-])c2)CC1 [Compound 2]
dose-dependent stabilizing effect on full length TRAF2 (thermal shift) [1]: subtle
Maximum fold change (Max) of nuclear FP-RelA [2]: significantly less
area under the fold change curve (AUC) of nuclear FP-RelA [2]: significantly less
potency in restricting the signaling network upstream of NF-kB activation [2]: low micromolar potency
nuclear mobilization of NF-kB [2]: reduced with increasing concentration
IL1-induced dynamics of nuclear NF-kB vs IL1-only control cells [3]: indistinguishable
number of TNF-induced FP-IKK puncta [4]: greatly reduced
overall expression level of IKKγ [5]: reduced
IKKβ kinase activity [6]: not inhibited
inhibitory activity over IKKβ kinase activity [6]: no direct inhibitory activity
cytotoxicity (fraction of surviving cells) [7]: low cytotoxicity

CCC(OC(=O)c1ccc(S(C)(=O)=O)c([N+](=O)[O-])c1)C(=O)NC1C2CC3CC(C2)CC1C3 (stereo not shown) [Compound 3]
dose-dependent stabilizing effect on full length TRAF2 (thermal shift) [1]: moderate
Maximum fold change (Max) of nuclear FP-RelA [2]: significantly less
area under the fold change curve (AUC) of nuclear FP-RelA [2]: significantly less
potency in restricting the signaling network upstream of NF-kB activation [2]: low micromolar potency
nuclear mobilization of NF-kB [2]: reduced with increasing concentration
IL1-induced dynamics of nuclear NF-kB vs IL1-only control cells [3]: indistinguishable
number of TNF-induced FP-IKK puncta [4]: greatly reduced
overall expression level of IKKγ [5]: reduced
IKKβ kinase activity [6]: not inhibited
inhibitory activity over IKKβ kinase activity [6]: no direct inhibitory activity
cytotoxicity (fraction of surviving cells) [7]: low cytotoxicity
